# Experimental data: patent US20110009446A1, “OLIGOMER-GUANIDINE CLASS CONJUGATES” (Nektar Therapeutics, priority 2008, published 2011)
# Structures can show the parent of a compound that is named as a salt.
# Legend:
# [1] = molecular target: T1, noradrenalin transporters (Rattus norvegicus, UniProt Q9WTR4); assay: Radioligand binding assay ([3H]-nisoxetine competition) in rat forebrain membranes; conditions: 1.0 nM [3H]-nisoxetine, 0-4° C., 4 hours, Cheng Prusoff correction
# T1 construct: membranes prepared from rat forebrain which express noradrenalin transporters; from tissue; host or cells: rat forebrain membranes
# T1 sequence (Q9WTR4 1-597): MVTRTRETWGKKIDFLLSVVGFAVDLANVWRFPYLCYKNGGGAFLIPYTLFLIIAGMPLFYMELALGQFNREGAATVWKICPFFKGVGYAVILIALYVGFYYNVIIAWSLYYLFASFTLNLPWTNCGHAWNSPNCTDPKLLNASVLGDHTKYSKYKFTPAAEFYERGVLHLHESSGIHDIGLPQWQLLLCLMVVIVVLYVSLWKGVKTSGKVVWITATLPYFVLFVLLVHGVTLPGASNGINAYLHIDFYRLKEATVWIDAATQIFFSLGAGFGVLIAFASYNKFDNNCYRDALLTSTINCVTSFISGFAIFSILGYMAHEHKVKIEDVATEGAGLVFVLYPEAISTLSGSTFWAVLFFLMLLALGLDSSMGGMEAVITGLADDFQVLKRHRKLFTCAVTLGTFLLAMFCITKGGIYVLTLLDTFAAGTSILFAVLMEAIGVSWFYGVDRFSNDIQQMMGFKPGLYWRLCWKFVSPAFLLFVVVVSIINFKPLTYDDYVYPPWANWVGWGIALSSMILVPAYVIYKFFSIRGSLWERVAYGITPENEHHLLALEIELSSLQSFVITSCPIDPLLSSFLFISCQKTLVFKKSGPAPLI
# Procedure: Competition binding experiments are conducted by incubating membranes with 1.0 nM of radioligand, [^3H]-nisoxetine, in the presence of variable concentrations (0.1 nM to 3 μM and 1 nM to 30 μM for parent and PEG conjugates, respectively) of test compounds. The reaction is carried out in 50 mM Tris-HCl (pH 7.4), containing 300 mM NaCl and 5 mM KCl at 0-4° C. for 4 hours. Following incubations, the membranes are washed, and the bound radioactivity is measured. Non-specific binding is measured in the presence of excess desipramine (1.0 μM) as the cold ligand; this value is subtracted from the total binding to yield the specific binding at each test compound concentration.
# Ki is obtained using the Cheng Prusoff correction using experimental Kd values that are previously determined under these assay conditions.
# [2] = tested on: visceral pain in mice (CD-1 male mice); assay: Analgesic assay (acetic acid-induced writhing); assay type: in vivo
# Procedure: An analgesic assay was used to determine whether a given compound can reduce and/or prevent visceral pain in mice. The assay utilized CD-1 male mice (5-8 mice per group), each mouse being approximately 0.015-0.030 kg on the study day. Mice were treated according to standard protocols. Mice were given a single “pretreatment” dose of a compound lacking covalent attachment of a water-soluble, non-peptidic oligomer, a corresponding version comprising the compound covalently attached to a water-soluble, non-peptidic oligomer, or control solution (IV, SC, IP or orally) thirty minutes prior to the administration of the acetic acid solution. The animal was given an IP injection of an irritant (acetic acid) that induces “writhing” which may include: contractions of the abdomen, twisting and turning of the trunk, arching of the back and the extension of the hindlimbs. Mice were given a single IP injection (0.1 mL/10 g bodyweight) of a 0.5% acetic acid solution. After the injection the animals were returned to their observation enclosure and their behavior was observed. Contractions were counted between 0 and 20 minutes after the injection. The animals were used once. Each tested article was dosed at 1, 3 and 10 mg/kg (n=5 animals/dose).
# [3] = 10 mg/kg, 5 animals, acetic acid writhing
Compound,Ki [1],"Mean (contractions/writhing counted) ([2]; 10 mg/kg single pretreatment dose 30 min before IP 0.5% acetic acid, contractions counted 0-20 min, CD-1 male mice)","No. of Responders [2, 3]","Responding Fraction [2, 3]","% Reduction in writhing ([2]; 10 mg/kg, CD-1 male mice, acetic acid writhing)"
"N=C(N)N1CCc2ccccc2C1 [Debrisoquine sulfate, debrisoquine sulfate]",594 nM,–,–,–,–
N=C(N)N1CCc2ccccc2C1 [Debrisoquine],–,49.6,0,0.00,10.6%
